Laboratory results taken from PubChem BioAssay (NCI).
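Protocol summary: plate cells (96-well), add compound at 5 concentrations, incubate 48 h, interpolate endpoints linearly. TGI marks complete inhibition of growth.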

Columns and labels:
Experiment in all cases: NCI-60 cell line screen, 48 h
A549 NSCLC = tested on: A549 NSCLC
DU-145 prostate = tested on: DU-145 prostate
HCT-15 colon = tested on: HCT-15 colon
K-562 leukemia = tested on: K-562 leukemia
KM12 colon = tested on: KM12 colon
M14 melanoma = tested on: M14 melanoma
MDA-MB-231 breast = tested on: MDA-MB-231 breast
MDA-MB-435 = tested on: MDA-MB-435
NCI-H23 lung = tested on: NCI-H23 lung
NCI-H460 lung = tested on: NCI-H460 lung
OVCAR-4 ovarian = tested on: OVCAR-4 ovarian
OVCAR-5 ovarian = tested on: OVCAR-5 ovarian
PC-3 prostate = tested on: PC-3 prostate
RXF 393 renal = tested on: RXF 393 renal
SK-MEL-2 melanoma = tested on: SK-MEL-2 melanoma
UACC-257 melanoma = tested on: UACC-257 melanoma
HL-60(TB) leukemia = tested on: HL-60(TB) leukemia

SMILES | TGI (A549 NSCLC) | TGI (DU-145 prostate) | TGI (HCT-15 colon) | TGI (K-562 leukemia) | TGI (KM12 colon) | TGI (M14 melanoma) | TGI (MDA-MB-231 breast) | TGI (MDA-MB-435) | TGI (NCI-H23 lung) | TGI (NCI-H460 lung) | TGI (OVCAR-4 ovarian) | TGI (OVCAR-5 ovarian) | TGI (PC-3 prostate) | TGI (RXF 393 renal) | TGI (SK-MEL-2 melanoma) | TGI (UACC-257 melanoma) | TGI (HL-60(TB) leukemia)
CCCN(CCCc1ccccc1)CCc1ccc2[nH]c(=S)[nH]c2c1 | > 100 µM | > 100 µM | > 100 µM | 29.3 µM | > 100 µM | 40 µM | > 100 µM | 41.8 µM | > 100 µM | 26.1 µM | > 100 µM | > 100 µM | > 100 µM | 76.1 µM | 38.4 µM | 44.3 µM | –
CCOC(=O)c1cn2c(n1)sc1c(Cl)c(Cl)ccc12 | > 100 µM | > 100 µM | > 100 µM | > 46.9 µM | > 58.2 µM | > 96.3 µM | > 100 µM | 12.6 µM | > 100 µM | > 100 µM | > 100 µM | > 100 µM | > 100 µM | > 100 µM | > 100 µM | > 100 µM | –
CN1CCN(c2ncc3c(n2)sc2c(=O)n(-c4ccccc4)cnc23)CC1 | > 100 µM | > 100 µM | > 100 µM | > 100 µM | > 100 µM | > 100 µM | > 100 µM | > 100 µM | > 100 µM | > 100 µM | > 100 µM | > 100 µM | > 100 µM | > 100 µM | > 100 µM | > 100 µM | –
O=S(Nc1ccccc1)c1cccc(Cl)c1 (configuration not stated) | > 100 µM | > 100 µM | > 100 µM | > 100 µM | > 100 µM | > 100 µM | > 100 µM | > 100 µM | > 100 µM | > 100 µM | – | > 100 µM | > 100 µM | > 100 µM | – | > 100 µM | > 100 µM
S=C1N(/N=C/c2c3ccccc3cc3ccccc23)C(=Nc2ccccc2)C(=Nc2ccccc2)N1c1ccccc1 | > 100 µM | > 100 µM | > 100 µM | > 100 µM | > 100 µM | > 100 µM | > 100 µM | > 100 µM | > 100 µM | > 100 µM | – | > 100 µM | > 100 µM | > 100 µM | > 100 µM | > 100 µM | –
CC[C@@H]1CC[C@@H]2[C@H](CC[C@]3(C)[C@@H](OS(=O)(=O)c4ccc(C)cc4)CC[C@@H]23)[C@H]1COS(=O)(=O)c1ccc(C)cc1 | > 100 µM | > 100 µM | > 100 µM | > 100 µM | – | > 100 µM | – | > 100 µM | – | > 100 µM | > 100 µM | – | > 100 µM | > 100 µM | – | > 100 µM | > 100 µM
C/C=C\C(CC(=O)NCCC1CN(S(=O)(=O)c2ccc(C)cc2)c2ccccc21)CC(=O)OC (configuration not stated) | > 100 µM | > 100 µM | > 100 µM | > 100 µM | > 100 µM | > 100 µM | > 100 µM | > 100 µM | > 100 µM | > 100 µM | > 100 µM | > 100 µM | > 100 µM | > 100 µM | > 100 µM | > 100 µM | –
CN(C)CCN(C)c1ccc2c(=O)n(CCN(C)C)c(=O)n3c4ccccc4c(=O)c1c23 | 22.7 µM | 1.3 µM | 10.8 µM | – | 8.08 µM | 6.68 µM | 4.23 µM | 3.18 µM | 2.23 µM | 2.23 µM | 2.27 µM | 12.1 µM | 21.3 µM | 11.2 µM | 6.84 µM | 4.73 µM | –
CC(C)(C)c1cc(C2=NNC(c3ccccc3)C2)cc(C(C)(C)C)c1O (configuration not stated) | 34.5 µM | 30.3 µM | 31.2 µM | – | 31.7 µM | 34.1 µM | 27.5 µM | 26.8 µM | 33.7 µM | 29.7 µM | 33.2 µM | 40.9 µM | 27.7 µM | 23.2 µM | 29.3 µM | 27.5 µM | –
Cc1nn(C(=O)Cc2ccccc2)c2c1C(c1ccc(O)cc1O)SC(N)=N2 (configuration not stated) | > 100 µM | > 100 µM | > 100 µM | – | > 100 µM | > 100 µM | > 100 µM | > 100 µM | > 100 µM | > 100 µM | – | – | > 100 µM | – | – | > 100 µM | > 100 µM
CC(C)C1=CC23CCC4C(C)(C(=O)O)CCCC4(C)C2CC1C1C(=O)N(c2ccccc2N2C(=O)C4C5CC6C7(C)CCCC(C)(C(=O)O)C7CCC6(C=C5C(C)C)C4C2=O)C(=O)C13 (configuration not stated) | 38.7 µM | 21.8 µM | 29.8 µM | 73 µM | 13.8 µM | 19.8 µM | 32.3 µM | 13.1 µM | 11.6 µM | – | 38.8 µM | 25 µM | 14 µM | 32.1 µM | 26.1 µM | – | –
CN(C)CCCNc1ccc([N+](=O)[O-])c2nc3ccccc3c(N)c12 | 2.37 µM | 1.75 µM | 1.7 µM | 2.27 µM | 1.53 µM | 1.95 µM | 2.53 µM | 2.26 µM | 2.78 µM | 1.38 µM | 0.595 µM | > 10 µM | 1.69 µM | 2.29 µM | 2.69 µM | > 10 µM | –
Cc1ccc(N(C(=O)Nc2ccccc2)C2=NCC(C)S2)cc1C (configuration not stated) | > 100 µM | > 100 µM | 44.5 µM | > 100 µM | 40.5 µM | 28.4 µM | 45 µM | – | 42.5 µM | 44.6 µM | > 100 µM | 73.5 µM | > 100 µM | – | 32.2 µM | > 10 µM | 63.7 µM
Cc1cc2c(cc1Cl)S(=O)(=O)OC(c1ccc([N+](=O)[O-])cc1)=N2 | > 100 µM | > 100 µM | > 100 µM | > 100 µM | > 100 µM | > 100 µM | > 100 µM | > 100 µM | – | > 100 µM | > 100 µM | – | > 100 µM | > 100 µM | – | > 100 µM | > 100 µM
